Where two headings read alike, the source gives them in different places. Numbered stars: 1 amine (or outer) side, 2 acyl side, 3 side chain; on linkers, the order of the positions; unused ones are H or OH. Bridge positions count the residues as written; N and C are the ends. Side chains are listed from the residue outwards. Ends that are not written are not given here. Peptide text beside a SMILES is read from it. * marks the point of attachment. C18 diacid = O=C(O)CCCCCCCCCCCCCCCCC(=O)*; γGlu = O=C(O)[C@H](CCC(=O)[*:2])N[*:1]; Stearoyl = CCCCCCCCCCCCCCCCCC(=O)*; Fumaroyl = O=C(O)/C=C/C(=O)*; Suc = O=C(CCC(=O)[*:2])[*:1]; AEEA = NCCOCCOCC(=O)O
Columns and labels:
[1] = Determination of half-lives of polypeptides (plasma, LC-MS); conditions: for half-life: C57 BL/6, mouse, plasma, iv; for AUClast 0-30 min: C57 BL/6 mice, dosage per compound 0.48, 0.96 or 1 mpk
human ETA receptor = target: T1, human ETA receptor (Homo sapiens, UniProt P25101); assay: Selectivity of polypeptides on human ETA receptor (IP-One Gq kit, % of positive control ET1); format: cell-based
T1 construct: expressed in transfected cells; host or cells: 293T-17 cells, transient transfection
T1 sequence (P25101 21-427): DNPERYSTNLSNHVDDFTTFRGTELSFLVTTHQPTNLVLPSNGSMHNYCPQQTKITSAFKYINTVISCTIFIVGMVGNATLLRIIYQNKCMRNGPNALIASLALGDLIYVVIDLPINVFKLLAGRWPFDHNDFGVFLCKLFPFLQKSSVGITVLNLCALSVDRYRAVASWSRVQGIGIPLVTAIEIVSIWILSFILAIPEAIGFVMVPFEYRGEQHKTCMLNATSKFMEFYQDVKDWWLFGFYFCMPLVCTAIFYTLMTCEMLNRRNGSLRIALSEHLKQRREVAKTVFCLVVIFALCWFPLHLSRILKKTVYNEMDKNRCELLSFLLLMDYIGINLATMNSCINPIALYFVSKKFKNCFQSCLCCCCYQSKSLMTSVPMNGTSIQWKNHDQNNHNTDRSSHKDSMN
Protocol: 293T-17 cells were seeded at a density of 650,000 cells per well in a 6-well plate and cultured overnight in an incubator at 37°C and 5% CO2. Afterward, the cells were transfected with an expression vector, PCDNA3.1-hETA which contained a human ETA receptor gene, at a plasmid concentration of 2.5 µg per well. The cells were further cultured for 48 hours, and green fluorescence expression was observed under a fluorescence microscope. The cells were then digested with trypsin and counted. The activity of compounds on the human ETA receptor was determined with the IP-One Gq kit from Cisbio Bioassays. The cells were suspended in Stim Buffer provided in the kit and the cell suspension was added to a 96-well detection plate at 7 µL cell suspension (containing 30,000 cells) per well. The polypeptides to be screened for activity (prepared according to the Preparation Example of the invention) and polypeptide human endothelin ET1 as positive control were dissolved in Stim B to be at a concentration of 2×, and 7 µL was added to the test cells, while 7 µL of PBS solution was added to the cells in the negative control wells. Human endothelin ET1 (ET1: […] (C1-C15,C3-C11)) set forth in SEQ ID No. 85 was used as the positive control polypeptide. The plate was sealed and incubated at 37°C for 1 h in a cell culture incubator. Detection wells, positive control wells, and PBS control wells were each added with 3 µL of IP1 d2 working solution and 3 µL of IP1 Tb cryptotate Antibody working solution. The plate was sealed and incubated in the dark at room temperature (25°C±5°C) for 1 h. The plate seal was removed, and the […] at 665 nm and 620 nm was measured with an ID5 microplate reader. The ratio of the acceptor emission signal to the donor emission signal, i.e., the value of (signal at 665 nm/signal at 620 nm)×10^4, was calculated for each well. With F3 representing the average value of values of signal at 665 nm/signal at 620 nm determined for the test sample at a specific concentration, F5 representing the average value of values of signal at 665 nm/signal at 620 nm determined for the positive control human endothelin ET1 at the same concentration, and T3 representing the average value of values of signal at 665 nm/signal at 620 nm determined for the PBS negative control, the percentage of activity of the test polypeptide sample relative to the positive control sample ET1 = (F3-T3)×100/(F5-T3) (see Table 6). hETA sequence (NCBI accession number L06622.1).

human ETB receptor = target: T2, human ETB receptor (Homo sapiens, UniProt P24530); assay: Screening of polypeptides for activity on human ETB receptor (IP-One Gq kit, % of positive control IRL1620); format: cell-based
T2 construct: expressed in transfected cells; host or cells: 293T-17 cells, transient transfection
T2 sequence (P24530 27-442): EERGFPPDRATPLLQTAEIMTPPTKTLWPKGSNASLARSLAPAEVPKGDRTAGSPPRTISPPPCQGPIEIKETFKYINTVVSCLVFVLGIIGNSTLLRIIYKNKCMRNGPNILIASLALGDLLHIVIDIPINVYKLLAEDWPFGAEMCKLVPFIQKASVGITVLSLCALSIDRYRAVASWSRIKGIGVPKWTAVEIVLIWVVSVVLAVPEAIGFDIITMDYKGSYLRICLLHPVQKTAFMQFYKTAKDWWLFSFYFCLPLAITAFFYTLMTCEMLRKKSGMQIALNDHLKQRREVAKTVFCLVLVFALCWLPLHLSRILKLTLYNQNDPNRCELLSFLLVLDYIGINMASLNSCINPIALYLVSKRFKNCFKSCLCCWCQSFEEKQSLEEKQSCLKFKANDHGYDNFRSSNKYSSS
Protocol: 293T-17 cells were seeded at a density of 650,000 cells per well in a 6-well plate and cultured overnight in an incubator at 37°C and 5% CO2. Afterward, the cells were transfected with an expression vector, PCDNA3.1-hETB which contained a human ETB receptor gene, at a plasmid concentration of 2.5 µg per well. The cells were further cultured for 48 hours, and green fluorescence expression was observed under a fluorescence microscope. The cells were then digested with trypsin and counted. The activity of compounds on the human ETB receptor was determined with the IP-One Gq kit from Cisbio Bioassays. The cells were suspended in Stim Buffer provided in the kit and the cell suspension was added to a 96-well detection plate at 7 µL cell suspension (containing 30,000 cells) per well. The polypeptides to be screened for activity (prepared according to the Preparation Example of the invention) and polypeptide IRL1620 as positive control were dissolved in Stim B to be at a concentration of 2×, and 7 µL was added to the test cells, while 7 µL of PBS solution was added to the cells in the negative control wells. IRL1620 was used as the positive control polypeptide. The plate was sealed and incubated at 37°C for 1 hour in a cell culture incubator. Test wells, positive control wells, and PBS control wells were each added with 3 µL of IP1 d2 working solution and 3 µL of IP1 Tb cryptotate Antibody working solution. The plate was then sealed and incubated in the dark at room temperature (25°C±5°C) for 1 hour. The plate seal was removed, and the […] at 665 nm and 620 nm was measured with an ID5 microplate reader. The ratio of the acceptor emission signal to the donor emission signal, i.e., the value of (signal at 665 nm/signal at 620 nm)×10^4, was calculated for each well. With F1 representing the average value of values of signal at 665 nm/signal at 620 nm determined for the test sample at a specific concentration, F2 representing the average value of values of signal at 665 nm/signal at 620 nm determined for the positive control IRL1620 at the same concentration, and T1 representing the average value of values of signal at 665 nm/signal at 620 nm determined for the PBS negative control, the percentage of activity of the test polypeptide sample relative to the positive control sample IRL1620 is equal to (F1-T1)×100/(F2-T1). hETB sequence (NCBI accession number NM_000115.5).

[2] = read-out: hETAR agonist activity, percentage of activity relative to ET1

Compound	hETAR agonist activity, percentage of activity relative to ET1 (human ETA receptor) [%@100µM]	hETAR agonist activity, percentage of activity relative to ET1 (human ETA receptor; @10µM) [%@10µM]	hETBR agonist activity, percentage of activity relative to IRL1620 (human ETB receptor) [%@100nM]	hETBR agonist activity, percentage of activity relative to IRL1620 (human ETB receptor; @10nM) [%@10nM]	other results
CC[C@H](C)[C@H](NC(=O)[C@H](CC(=O)O)NC(=O)[C@H](CC(C)C)NC(=O)[C@H](Cc1c[nH]cn1)NC(=O)[C@H](C)NC(=O)[C@H](Cc1ccccc1)NC(=O)[C@H](Cc1ccc(O)cc1)NC(=O)[C@@H]1CSSC[C@H](NC(=O)[C@H](CCC(=O)O)NC(=O)[C@H](CC(=O)O)NC(=O)CCC(=O)O)C(=O)N[C@@H](CCC(=O)O)C(=O)N[C@@H](CCC(=O)O)C(=O)N1)C(=O)N[C@H](C(=O)N[C@@H](Cc1c[nH]c2ccccc12)C(=O)O)[C@@H](C)CC [BX-56] (Suc-DECEECYFAHLDIIW-OH; disulfide 3-6)	–	–	–	–	half-life [1]: 8.9 min; AUClast 0-30 min ([1]; i.v.): 1376 ng·h/mL
CCCCCCCCCCCCCCCCCC(=O)NCCOCCOCC(=O)NCCOCCOCC(=O)N[C@@H](CCC(=O)NCCCC[C@H](NC(=O)[C@H](Cc1c[nH]cn1)NC(=O)[C@H](C)NC(=O)[C@H](Cc1ccccc1)NC(=O)[C@H](Cc1ccc(O)cc1)NC(=O)[C@@H](NC(=O)[C@H](C)NC(=O)[C@H](CCC(=O)O)NC(=O)[C@H](CCC(=O)O)NC(=O)[C@H](CC(=O)O)NC(=O)/C=C/C(=O)O)C(C)C)C(=O)N[C@@H](CC(=O)O)C(=O)N[C@H](C(=O)N[C@H](C(=O)N[C@@H](Cc1c[nH]c2ccccc12)C(=O)O)[C@@H](C)CC)[C@@H](C)CC)C(=O)O [BX-69] (Fumaroyl-DEEAVYFAHK([γGlu-AEEA-AEEA-Stearoyl])DIIW-OH)	–	–	–	–	activation at 10 µM (human ETA receptor; [2]): 13.1%; activation at 100 µM (human ETA receptor; [2]): 11.5%; half-life [1]: 30 min; AUClast 0-30 min ([1]; i.v.): 1611 ng·h/mL; T1/2 ([1]; Table 1, mice, i.v.): T1/2=30min;
CC[C@H](C)[C@H](NC(=O)[C@H](CC(=O)O)NC(=O)[C@H](CCCCN)NC(=O)[C@H](Cc1c[nH]cn1)NC(=O)[C@H](C)NC(=O)[C@H](Cc1ccccc1)NC(=O)[C@H](Cc1ccc(O)cc1)NC(=O)[C@@H](NC(=O)[C@H](C)NC(=O)[C@H](CCC(=O)O)NC(=O)[C@H](CCC(=O)O)NC(=O)[C@H](CC(=O)O)NC(=O)/C=C/C(=O)O)C(C)C)C(=O)N[C@H](C(=O)N[C@@H](Cc1c[nH]c2ccccc12)C(=O)O)[C@@H](C)CC [F-BX-5] (Fumaroyl-DEEAVYFAHKDIIW-OH)	–	–	–	–	half-life [1]: < 3 min; AUClast 0-30 min ([1]; i.v.): 127 ng·h/mL
Fum-D cyclo(EEAK)YFAHK(-γE-AEEA-AEEA-ODDA)DVIW [BX-100]	9.52	-39.09	15.03	18.79	–
Fum-D cyclo(EEAK)YFAHLD(2-Abu)IW [BX-64]	6.41	-13.52	132.16	79.92	–
Fum-DEE cyclo(EVYFK)HKD(2-Abu)IW [BX-62]	–	–	129.39	99.31	hETAR agonist activity, percentage of activity relative to ET1 (human ETA receptor; @10nM): -17.37%@10nM; hETAR agonist activity, percentage of activity relative to ET1 (human ETA receptor; @100nM): -19.09%@100nM
Fum-DEEK(-γE-AEEA-AEEA-ODDA)VYFAHLDIIW (Fum-DEEK with lipidated linker N-terminal) [BX-66]	-0.94	13.13	60.51	7.67	–
Suc-D cyclo(EEAK)YFAHK(-γE-AEEA-AEEA-ODDA)DIIW [BX-77]	-6.32	-29.53	4.69	-16.59	–
Suc-D cyclo(EEAK)YFAHK(-γE-AEEA-AEEA-ODDA)DVIW [BX-79]	-12.17	-46.08	19.85	2.13	–
Suc-D cyclo(EEAK)YFAHLD(2-Abu)IW [BX-63]	4.43	-15.24	122.93	90.08	–
Suc-DEEAVYFAHK(-γE-AEEA-AEEA-ODDA)DVIW (Suc-DEEAVYFAHK([γGlu-AEEA-AEEA-C18 diacid])DVIW) [BX-78]	-23.02	-6.06	23.41	-14.2	–
